Active and inactive are the calls of the source.
How the values were obtained:
[1] = target: Sphingosine 1-phosphate receptor 2 (Homo sapiens, UniProt O95136); test: Dose Response Cell Based Assay for Agonists of the S1P2 Receptor of Purchased Analogues. [Related pubchem assays: 729, 843, 854, 736 ]; type: functional
[2] = inhibitors of Bluetongue virus cytopathic effect, confirmation, arbovirus, BSR cells (AID 1250); type: functional;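 also: protection from viral cytopathic effect measured as cell viability by ATP luminescence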
[3] = target: 5-hydroxytryptamine receptor 1E (Homo sapiens, UniProt P28566); test: Counterscreen assay for S1P3 antagonists: Dose response cell-based high throughput screening assay to identify antagonists of the 5-Hydroxytryptamine Receptor Subtype 1E (5HT1E). [Related pubchem assays: 1429, 485 ]; type: functional
5-hydroxytryptamine receptor 1E, sequence (P28566 whole entry): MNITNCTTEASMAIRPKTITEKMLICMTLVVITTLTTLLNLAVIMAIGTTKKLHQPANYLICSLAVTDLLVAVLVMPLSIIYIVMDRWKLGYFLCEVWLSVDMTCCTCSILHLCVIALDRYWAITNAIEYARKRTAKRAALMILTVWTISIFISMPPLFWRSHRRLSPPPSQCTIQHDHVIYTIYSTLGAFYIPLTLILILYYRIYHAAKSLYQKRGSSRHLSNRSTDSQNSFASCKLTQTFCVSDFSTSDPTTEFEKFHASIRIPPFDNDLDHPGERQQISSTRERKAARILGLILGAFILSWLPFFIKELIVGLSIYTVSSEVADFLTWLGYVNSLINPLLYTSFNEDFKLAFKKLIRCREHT

[4] = target: Sphingosine 1-phosphate receptor 3 (Homo sapiens, UniProt Q99500); test: Dose response cell-based high throughput screening assay for antagonists of the Sphingosine 1-Phosphate Receptor 3 (S1P3). [Related pubchem assays: 1429, 485 ]; type: functional
Sphingosine 1-phosphate receptor 3, sequence (Q99500 whole entry): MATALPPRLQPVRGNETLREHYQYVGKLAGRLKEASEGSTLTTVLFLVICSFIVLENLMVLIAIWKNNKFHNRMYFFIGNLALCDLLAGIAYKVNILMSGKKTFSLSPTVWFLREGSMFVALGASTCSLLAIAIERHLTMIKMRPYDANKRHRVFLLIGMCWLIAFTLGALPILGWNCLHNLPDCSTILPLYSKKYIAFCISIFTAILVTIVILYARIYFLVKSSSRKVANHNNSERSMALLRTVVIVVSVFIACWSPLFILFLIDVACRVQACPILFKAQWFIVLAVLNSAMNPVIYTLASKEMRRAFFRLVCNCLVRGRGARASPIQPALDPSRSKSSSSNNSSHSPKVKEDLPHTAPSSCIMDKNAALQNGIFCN

[5] = target: Glucose-6-phosphate 1-dehydrogenase (Homo sapiens, UniProt P11413); test: human G6PD enzyme inhibitors, dose response, selectivity assay for P. falciparum G6PD inhibitor project, biochemical, fluorescence (AID 504792); type: functional
Glucose-6-phosphate 1-dehydrogenase, sequence (P11413 whole entry): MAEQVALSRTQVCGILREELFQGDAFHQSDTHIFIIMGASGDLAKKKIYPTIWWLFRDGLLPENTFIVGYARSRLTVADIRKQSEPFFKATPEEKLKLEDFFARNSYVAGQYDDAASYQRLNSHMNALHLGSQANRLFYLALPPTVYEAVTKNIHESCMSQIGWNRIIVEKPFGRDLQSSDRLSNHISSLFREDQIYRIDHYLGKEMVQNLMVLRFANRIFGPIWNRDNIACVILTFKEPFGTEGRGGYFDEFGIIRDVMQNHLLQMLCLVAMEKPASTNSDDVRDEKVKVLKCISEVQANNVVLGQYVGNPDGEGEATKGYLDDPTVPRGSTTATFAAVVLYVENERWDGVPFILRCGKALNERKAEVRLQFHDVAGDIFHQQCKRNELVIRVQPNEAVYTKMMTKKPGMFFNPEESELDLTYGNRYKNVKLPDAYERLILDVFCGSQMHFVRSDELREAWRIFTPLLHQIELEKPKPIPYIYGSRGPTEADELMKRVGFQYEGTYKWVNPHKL

[6] = target: T1, Probable nicotinate-nucleotide adenylyltransferase (Staphylococcus aureus (strain N315), UniProt P65502); type: functional, Staphylococcus aureus subsp. aureus N315;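 as to IC50 Mean: confirmatory dose-response retesting of NadD inhibitor hits first found in an ultra-high-throughput screen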
T1 sequence (P65502 whole entry): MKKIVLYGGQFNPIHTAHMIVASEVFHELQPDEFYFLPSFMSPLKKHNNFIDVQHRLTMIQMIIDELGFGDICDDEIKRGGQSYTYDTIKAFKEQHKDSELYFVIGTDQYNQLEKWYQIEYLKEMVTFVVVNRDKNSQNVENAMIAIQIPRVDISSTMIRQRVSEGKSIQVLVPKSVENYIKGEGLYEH

[7] = target: T1, Probable nicotinate-nucleotide adenylyltransferase; type: functional, Staphylococcus aureus subsp. aureus N315; settings: read-out: IC50_Mean
Paired box protein Pax-8 = Paired box protein Pax-8 (Homo sapiens, UniProt Q06710); test: inhibitors of PAX8-driven TPO luciferase reporter, dose response, RMG-I cells, cherry-pick (AID 687027); type: functional, cell-based;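 also: luciferase reporter driven by Pax8 target thyroperoxidase promoter measured by SteadyGlo luminescence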
Paired box protein Pax-8, sequence (Q06710 whole entry): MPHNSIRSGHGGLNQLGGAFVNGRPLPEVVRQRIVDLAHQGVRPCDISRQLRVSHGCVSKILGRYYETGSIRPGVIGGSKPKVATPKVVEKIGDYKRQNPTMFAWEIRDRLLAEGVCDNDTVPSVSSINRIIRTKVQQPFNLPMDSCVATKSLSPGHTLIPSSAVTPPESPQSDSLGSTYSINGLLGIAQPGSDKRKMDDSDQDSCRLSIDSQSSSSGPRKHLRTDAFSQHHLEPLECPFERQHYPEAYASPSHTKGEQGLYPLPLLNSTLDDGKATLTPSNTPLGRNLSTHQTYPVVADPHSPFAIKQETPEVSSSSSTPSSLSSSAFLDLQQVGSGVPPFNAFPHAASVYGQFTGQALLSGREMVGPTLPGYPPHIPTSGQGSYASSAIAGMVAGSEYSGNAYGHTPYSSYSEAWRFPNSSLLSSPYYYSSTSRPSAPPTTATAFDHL

Large T antigen = Large T antigen (Simian virus 40, UniProt P03070); type: functional, Betapolyomavirus macacae;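 also: Confirmatory-stage PubChem screen for compounds that inhibit SV40 T antigen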
Large T antigen, sequence (P03070 whole entry): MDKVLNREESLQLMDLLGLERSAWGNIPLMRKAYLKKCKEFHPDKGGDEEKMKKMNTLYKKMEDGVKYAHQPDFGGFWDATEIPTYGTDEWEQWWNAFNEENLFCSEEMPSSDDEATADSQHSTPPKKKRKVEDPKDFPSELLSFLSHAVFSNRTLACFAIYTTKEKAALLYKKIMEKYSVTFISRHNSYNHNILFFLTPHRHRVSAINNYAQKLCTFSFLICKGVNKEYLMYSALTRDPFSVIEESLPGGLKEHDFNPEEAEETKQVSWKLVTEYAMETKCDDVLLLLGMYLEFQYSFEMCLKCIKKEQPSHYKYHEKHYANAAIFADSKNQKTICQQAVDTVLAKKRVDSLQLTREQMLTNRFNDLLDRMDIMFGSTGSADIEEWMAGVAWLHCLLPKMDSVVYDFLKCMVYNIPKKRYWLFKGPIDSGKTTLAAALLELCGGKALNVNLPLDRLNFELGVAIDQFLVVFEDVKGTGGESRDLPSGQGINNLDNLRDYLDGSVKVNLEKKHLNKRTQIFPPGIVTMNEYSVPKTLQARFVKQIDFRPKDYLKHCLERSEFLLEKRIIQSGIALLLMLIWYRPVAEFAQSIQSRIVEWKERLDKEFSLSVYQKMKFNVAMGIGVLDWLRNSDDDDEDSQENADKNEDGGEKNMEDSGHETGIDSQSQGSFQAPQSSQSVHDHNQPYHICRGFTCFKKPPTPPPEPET

[8] = target: T2, Mannose-6-phosphate isomerase (Homo sapiens, UniProt P34949); test: inhibitors of human PMI, primary screen, biochemical, fluorescence intensity, coupled assay (AID 1209)
T2 sequence (P34949 whole entry): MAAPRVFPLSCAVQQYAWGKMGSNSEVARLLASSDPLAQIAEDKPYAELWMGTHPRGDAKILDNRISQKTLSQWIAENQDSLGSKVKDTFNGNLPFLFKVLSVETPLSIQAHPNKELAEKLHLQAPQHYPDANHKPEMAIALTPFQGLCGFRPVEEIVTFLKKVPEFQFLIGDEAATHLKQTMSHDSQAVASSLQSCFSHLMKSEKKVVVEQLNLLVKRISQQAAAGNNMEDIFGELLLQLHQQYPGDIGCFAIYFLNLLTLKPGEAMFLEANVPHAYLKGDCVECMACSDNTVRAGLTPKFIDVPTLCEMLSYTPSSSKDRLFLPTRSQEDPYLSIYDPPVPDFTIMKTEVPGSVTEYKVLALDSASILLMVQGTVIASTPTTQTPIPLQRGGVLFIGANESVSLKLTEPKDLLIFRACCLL

[9] = THP-1 cell cytotoxicity, dose response, cytotoxicity control for Vif-APOBEC3G degradation inhibitor project, THP-1 cells (AID 1117359); type: functional; settings: Human immunodeficiency virus 1, THP-1
[10] = luciferase reporter signal reduction – luminescence, H4-C neuroglioblastoma cells, dose response (AID 2458); type: functional, cell-based;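 also: H4 neuroglioblastoma cells stably carrying a luciferase reporter gene fusion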
BJ [11] = test: cytotoxicity toward BJ-TERT fibroblasts, dose response, cell-based, RAS-independent, luminescence (AID 1933); type: functional; settings: Homo sapiens
cells = type: functional, cell-based
[12] = Luminescence Cell-Based Dose Response HTS to Identify Inhibitors of 5'UTR Stem-Loop Driven Prion Protein mRNA Translation in H4 Neuroglioblastoma Cells. [Related pubchem assays: 1827 (Project Summary), 1813 (Primary HTS)]; type: functional
[13] = inhibitors of SNCA 5'UTR-driven reporter translation, confirmation, H4 neuroglioma cells, luminescence (AID 1988); type: functional, cell-based
BJ [14] = test: cells; type: functional, cell-based; settings: Homo sapiens
BJ [15] = test: cytotoxicity toward BJ-TERT-LT-ST fibroblasts, dose response, cell-based, RAS-independent, luminescence (AID 1935); type: functional; settings: Homo sapiens;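 also: BJ fibroblasts immortalized with TERT plus LT and ST oncogenes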
[16] = cytotoxicity toward DRD oncogenic fibroblasts, dose response, cell-based, non-viral oncogenic, luminescence (AID 1934); type: functional; settings: Homo sapiens
[17] = inhibitors of SNCA 5'UTR-driven translation, confirmation, luminescence, H4 neuroglioblastoma cells, dose confirmation (AID 2454); type: functional, cell-based;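 also: H4 neuroglioblastoma cells carrying an alpha-synuclein 5'UTR luciferase reporter; potency for inhibition of the luciferase signal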
[18] = cytotoxicity in HEK-293T cells, dose response, cytotoxicity control for TCR NF-kB inhibitor project, luminescence, T-cell screen hits (AID 489026); type: functional, cell-based;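 also: cells exposed to compound about 14 hours before the viability readout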
[19] = target: Disintegrin and metalloproteinase domain-containing protein 17 (Homo sapiens, UniProt P78536); test: exosite inhibitors of ADAM17, dose response, biochemical (AID 743260)
Disintegrin and metalloproteinase domain-containing protein 17, sequence (P78536 whole entry, the tested form may be a part): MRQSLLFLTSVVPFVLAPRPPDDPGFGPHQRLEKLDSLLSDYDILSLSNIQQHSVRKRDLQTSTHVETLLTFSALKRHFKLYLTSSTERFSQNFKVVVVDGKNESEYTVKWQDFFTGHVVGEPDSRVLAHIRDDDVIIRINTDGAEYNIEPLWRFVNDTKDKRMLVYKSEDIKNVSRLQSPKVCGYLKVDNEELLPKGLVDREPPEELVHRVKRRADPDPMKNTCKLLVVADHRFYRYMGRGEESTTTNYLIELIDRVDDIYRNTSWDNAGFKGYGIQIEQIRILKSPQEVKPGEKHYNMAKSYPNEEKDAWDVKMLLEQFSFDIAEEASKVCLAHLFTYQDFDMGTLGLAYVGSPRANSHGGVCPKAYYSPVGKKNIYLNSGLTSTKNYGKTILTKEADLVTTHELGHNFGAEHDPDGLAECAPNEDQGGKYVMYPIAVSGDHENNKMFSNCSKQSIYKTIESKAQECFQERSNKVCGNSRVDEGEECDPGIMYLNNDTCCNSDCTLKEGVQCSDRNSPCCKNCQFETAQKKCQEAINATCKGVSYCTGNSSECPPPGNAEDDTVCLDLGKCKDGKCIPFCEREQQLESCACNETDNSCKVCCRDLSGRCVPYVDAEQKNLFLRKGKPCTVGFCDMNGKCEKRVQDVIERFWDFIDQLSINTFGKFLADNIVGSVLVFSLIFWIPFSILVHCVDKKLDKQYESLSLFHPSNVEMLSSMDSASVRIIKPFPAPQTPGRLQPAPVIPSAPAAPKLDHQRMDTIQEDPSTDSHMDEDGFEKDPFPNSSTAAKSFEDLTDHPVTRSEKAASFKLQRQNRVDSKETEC

[20] = ADAM10 protease inhibitors, dose response, selectivity assay for ADAM17 exosite inhibitor project, biochemical, FRET peptide substrate, recombinant human ADAM10 (AID 743259);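 also: ADAM10 enzyme cleaving a FRET peptide substrate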

Sphingosine 1-phosphate receptor 2, sequence (O95136 whole entry): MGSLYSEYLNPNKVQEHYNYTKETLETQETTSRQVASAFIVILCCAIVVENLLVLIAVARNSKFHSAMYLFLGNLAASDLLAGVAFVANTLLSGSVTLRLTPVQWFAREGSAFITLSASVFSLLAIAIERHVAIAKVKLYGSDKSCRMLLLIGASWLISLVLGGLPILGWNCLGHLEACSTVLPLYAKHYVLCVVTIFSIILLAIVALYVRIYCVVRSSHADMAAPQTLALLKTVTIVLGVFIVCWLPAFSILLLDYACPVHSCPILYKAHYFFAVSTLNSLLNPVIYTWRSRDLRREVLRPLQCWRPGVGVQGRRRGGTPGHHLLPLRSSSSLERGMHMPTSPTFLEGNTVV

Q: With Cc1cc(C(=O)CN(C)CC(=O)NC2CC2)c(C)n1Cc1ccccc1 as the compound, how does the EC50 [1] read?
A: > 30 µM (not active)

Q: Which IC50 [2] does the source give for Cc1nc2c(C(=O)NCCc3ccccc3Cl)cnn2c(O)c1Cl here?
A: 23.9 µM (active)

Q: For Cc1cccc(C2(c3cccc(C)c3)CC2C(=O)Nc2ccc([N+](=O)[O-])cc2O)c1 (stereo not drawn), which IC50 [3] is on record?
A: 5.46 µM (active)

Q: What about the IC50 [4] of the same compound?
A: > 50 µM (not active)

Q: What about the IC50 [5] of the same compound?
A: > 80 µM (inactive)

Q: What about the IC50 [6] of the same compound?
A: 17 µM (active)

Q: What about the IC50 [7] of the same compound?
A: 45.4 µM (active)

Q: What about the AC50 (Paired box protein Pax-8) of the same compound?
A: 7.83 µM (active)

Q: What does the source list for COc1cccc(-n2c(/C=C/c3ccc(O)c(O)c3)nc3ccccc3c2=O)c1?
A: IC50 (Large T antigen): > 100 µM (active); IC50 [8]: > 50 µM (not active); CC50 [9]: 23.1 µM (active)

Q: For Cc1cc(C)c(S(=O)(=O)Nc2ccc3c4c(cccc24)CC3)c(C)c1, which EC50 [10] is on record?
A: 1.06 µM (active)

Q: What about the EC50 (BJ [11]) of the same compound?
A: 0.288 µM (active)

Q: And the EC50 (cells)?
A: 2.97 µM (active)

Q: What about the EC50 [12] of the same compound?
A: 9.52 µM (active)

Q: What about the EC50 [13] of the same compound?
A: < 0.1 µM (active)

Q: And the EC50 (BJ [14])?
A: 2.1 µM (inconclusive)

Q: And the EC50 (BJ [15])?
A: 0.246 µM (inconclusive)

Q: And the EC50 [16]?
A: 0.383 µM (inconclusive)

Q: And the EC50 [17]?
A: 1.2 µM (active)

Q: And the IC50 [18]?
A: > 80 µM (inactive)

Q: What about the IC50 [19] of the same compound?
A: > 69.5 µM (inactive)

Q: What about the IC50 [20] of the same compound?
A: > 69.5 µM (inactive)
